In patent US12121525B2, “Methods for treating GI syndrome and graft versus host disease” (Sloan Kettering Institute for Cancer Research, priority 2007, dated 2024):

Columns and labels:
C57BL/6 hepatocytes [1] = format: cell-based
Experimental: FIGS. 16A-16F. In vivo activated allogeneic CTLs require target hepatocyte ASMase for efficient killing ex vivo. Hepatocytes, isolated as described in Example 1, were coincubated with splenic T cells harvested from lethally-irradiated wild type C57BL/6 recipients 10-14 days following transplantation of LP BM+T cells. FIG. 16A: 2×10^6 GvH-activated CTLs were coincubated with 0.5×10^6 wild type C57BL/6 or B6.MRL.1pr (FasR^−/−) hepatocytes (left panel) in complete medium for 16 hr. […] Apoptosis was quantified following fixation by nuclear bisbenzimide staining. FIG. 16B: asmase^−/− hepatocytes are resistant to apoptosis induced by GvH-activated CTLs. CTL coincubation was performed as in FIG. 16A and apoptosis was quantified 16 hr thereafter. FIG. 16C: Representative images of asmase^+/+ (top left panel) and asmase^−/− (bottom left panel) C57BL/6 hepatocytes following 10 min coincubation in suspension with 2×10^6 GvH-activated T cells. Hepatocytes were fixed and stained with DAPI and Cy-3-labelled anti-ceramide mAb as described in Example 1. Arrows indicate ceramide-rich platform generation on the outer leaflet of the plasma membrane. […] FIG. 16D: Quantification of ceramide-rich platforms in asmase^+/+ and asmase^−/− hepatocytes following incubation with 2×10^6 GvH-activated CTLs. […] Apoptosis was quantified as in FIG. 16A. […] 0.5×10^6 wild type hepatocytes, preincubated with 50 μg/mL nystatin for 30 min and resuspended in RPMI containing 1% lipid-free FBS, were coincubated with 2×10^6 GvH-activated T cells and apoptosis was quantified as in FIG. 16A. […]
To assess whether ceramide-mediated raft clustering into membrane platforms is an essential component of cytolytic T cell (CTL)-induced apoptosis of hepatocytes, we blocked raft clustering pharmacologically and examined the impact on alloactivated CTL-induced hepatocyte apoptosis in vitro. […] Co-incubation induced increased hepatocyte apoptosis from a baseline of 4.7±0.7% to 33.8±1.9% by 16 hr, as detected by nuclear morphologic changes (FIG. 16A). […]

C57BL/6 hepatocytes [2] = format: cell-based; settings: not shown
Experimental: Whereas Fas-mediated apoptotic death receptor activation requires generation of ceramide-rich platforms in some cell systems, CTL-induced platform generation was assessed in asmase^+/+ and asmase^−/− hepatocytes in the ex vivo model of GvHD. Alloactivated T cells induced rapid generation of ceramide-rich platforms on the surface of the target hepatocytes 10 min following co-incubation (FIG. 16C). Platform generation increased within one minute, peaked at 10 min, and persisted for over 60 min (FIG. 16D). Fas, required for apoptosis in this system, concentrated within the ceramide-rich platform as determined by confocal microscopy.
Platforms were detected as previously described. […]; Sigma-Aldrich) for 45 min at 4° C., washed twice in PBS containing 0.1% Triton X-100 and mounted in fluorescent mounting medium (Dako, Carpenteria CA). Fluorescence was detected using an Axiovert S-100 Zeiss fluorescence microscope equipped with a SPOT digital camera. The percentage of cells containing platforms, i.e. those in which the fluorescence condenses onto less than 15% of the cell surface, was determined by counting 150-250 cells per point. Alternately, platforms were identified using a mouse monoclonal anti-ceramide antibody MID 15B4 IgM (1:50 dilution, Alexis Biochemicals), mouse monoclonal anti-Fas CH-11 IgM (1:500 dilution, Upstate Biotechnology) or polyclonal rabbit anti-ASMase antibody 1598 (1:100 dilution) and detected using Cy3-conjugated anti-mouse or anti-rabbit IgM (1:500 dilution, Roche Molecular Biochemicals), respectively. Rabbit polyclonal anti-CD46 (1:1000 dilution, Santa Cruz Biotechnology, Santa Cruz CA) was used as a negative control. In some studies, confocal images were obtained using a Leica TCS SPZ upright confocal microscope. Alternatively, 0.5×10^6hepatocytes were stimulated for the indicated times with CTLs and platform formation was assessed as described.

C57BL/6 mice = settings: intravenous, prior to TBI; cited from earlier work
C57BL/6 splenocytes [3] = test: MLR-primed CTL-induced splenocyte lysis (51Cr release); format: cell-based, mouse; settings: 500 nM
Experimental: To show the generic role of target cell ASMase in T cell-induced lysis, we used two standardized assays for T cell function; MLR-primed CTL-induced splenocyte lysis (FIG. 17) and in vitro activation-induced cell death (AICD) of T cells (FIG. 18). The role of target cell ASMase was assessed in an in vitro activated MLR, in which C57BL/6 splenocyte target cells of asmase^+/+ or asmase^−/− genotype were stimulated for 48 hrs with mitogen, washed and chromium labeled. These cells were then coincubated with effector Balb/c splenocytes activated for 5 days by culture with irradiated C57BL/6 splenocytes. Chromium release was quantified and the % lysis was calculated. […] Washed splenocytes cells were coincubated with increasing ratios of activated effector Balb/c T cells, and ^51Cr release was quantified 6 hour thereafter. […]
To evaluate a potential generic role for target cell ASMase in platform generation in T cell-induced lysis, we tested two standardized assays for T cell-mediated cytolysis, MLR-primed CTL-induced splenocyte lysis, and in vitro AICD of T cells. […] Furthermore, MLR-primed CTLs induced 43.2±6.5% asmase^+/+ splenocyte lysis at an effector:target ratio of 50:1 (FIG. 19B), attenuated to 7.3±2.5% lysis in asmase^−/− target cells, as quantified by ^51Cr-release assay. […]

splenic T cells [4] = test: Activation-induced cell death (AICD) assay, T cell apoptosis; format: cell-based, mouse; settings: 500 nM; 16 hr
Text: To define a role for target cell ASMase in AICD, asmase^+/+, asmase^−/− or MRL.1pr (FasR^−/−) T cells were stimulated for 24 hr with 10 microgam/ml ConA, washed, rested in medium containing 20 U/ml rIL-2 for 24 hr, and finally AICD was initiated by restimulation in medium containing 20 U/ml rIL-2 and increasing concentrations of plate bound anti-CD3 mAb for 24 hr. AICD induction by anti-CD3 mAb conferred ceramide-rich platform generation 4 hr following stimulation (FIG. 19D), evident in 26.4±1.6% of the population of asmase^+/+ T cells compared to 5.1±1.0% of asmase^−/− T cells (p<0.005). Confocal analysis identified colocalization of the sphingolipid GM1 (FIG. 19E) and Fas within ceramide-rich platforms in asmase^+/+ T cells.
To characterize the impact of platform generation on AICD, asmase^+/+ and asmase^−/− T cells were induced to undergo AICD and apoptosis was quantified 16 hr thereafter. Apoptosis in asmase^+/+ T cells was anti-CD3 mAb dose-dependent, reaching 32.9±5.2% apoptosis 16 hr post induction (FIG. 19F). […]
Harvested splenocytes were enriched for T lymphocytes by nylon wool passage, resulting in >90% purity based upon FITC-CD3 mAb staining by flow cytometry. […] Cells were subsequently fixed, stained with 25 μl of 24 μg/ml bis-benzimide trihydrochloride solution (Hoechst #33258; Sigma-Aldrich, Milwaukee Wisc.) and apoptosis was quantified by fluorescence microscopy, as above.

splenic T cells [5] = test: Platform generation in T cells after AICD induction; settings: 500 nM; not shown
C57BL/6 splenocytes [6] = test: Platform generation on target splenocytes coincubated with MLR-primed CTLs; settings: 500 nM

Compound: C[C@@H]1[C@H](O)[C@@H](C)/C=C/C=C/CC/C=C/C=C/C=C/C=C/C(O[C@H]2O[C@H](C)[C@@H](O)[C@H](N)[C@@H]2O)CC2O[C@](O)(CC(O)C(O)CCC(O)CC(O)CC(O)CC(=O)O[C@H]1C)CC(O)C2C(=O)O (some centres unmarked) [nystatin]
- 2×10^6 alloactivated CTL-induced hepatocyte apoptosis (C57BL/6 hepatocytes [1]; wild type hepatocytes preincubated with 50 μg/mL nystatin for 30 min): completely inhibited
- CTL-induced ceramide-rich platform generation (C57BL/6 hepatocytes [2]; wild type hepatocytes, nystatin 50 μg/mL 30 min): abrogated

Compound: bFGF: endothelial cell survival factor
- crypt stem cell clonogens (C57BL/6 mice): preserved
- lethality from the GI syndrome (C57BL/6 mice): protected
- radiation-induced endothelial apoptosis of the intestinal microvascular system (C57BL/6 mice): attenuated

Compound: C/C=C/[C@H]1O[C@@](O)([C@@H](C)[C@H](O)[C@H](C)[C@H]2OC(=O)/C(OC)=C/C(C)=C/[C@@H](C)[C@@H](O)[C@@H](CC)[C@@H](O)[C@H](C)C/C(C)=C/C=C/[C@@H]2OC)C[C@@H](O[C@H]2C[C@@H](O)[C@H](OC(N)=O)[C@@H](C)O2)[C@@H]1C [CMA, concanamycin A]
- CTL-induced hepatocyte apoptosis (C57BL/6 hepatocytes [1]; CTLs incubated 2 hr with 100 ng/ml CMA, wild type hepatocytes, 16 hr): no effect

Compound: CCCCCCCCCCCCCCCC(=O)N[C@@H](CO)[C@H](O)CCCCCCCCCCCCCCC [C16-dihydroceramide]
- CTL-induced platform generation in asmase−/− hepatocytes (C57BL/6 hepatocytes [2]): failed to restore
- CTL-induced lysis of asmase−/− target splenocytes (C57BL/6 splenocytes [3]): ineffective
- apoptosis of asmase−/− T cells stimulated to undergo AICD (splenic T cells [4]): not
- platform generation in asmase−/− T cells stimulated to undergo AICD (splenic T cells [5]): not
- platform generation on asmase−/− target splenocytes (C57BL/6 splenocytes [6]): ineffective
